Measured values from PubChem BioAssay AID1919001 (Molecular Pharmacology Branch, DTP, NCI, 2023).
pIC50: −log10 of the molar value. Several values for one entry are separate records, joined by “and”; a condition that tells them apart may be missing. Equal entries are not always repeated.

Tested on: 699152-130-R-J1-PDC complex spheroid growth
Experiment: Anticancer human tumor 699152-130-R-J1-PDC patient-derived pancreatic carcinoma cell line growth inhibition [AhR]
Settings: for viability, T/C: stronger effect = lower value; active means viability on the fitted dose curve at most 10% of control; inactive means the rest
Text: Multicellular complex tumor spheroid response to aryl hydrocarbon receptor antagonists in combination with a variety of drugs and investigational agents in selected tumor cell lines
The current study was undertaken to assess response to aryl hydrocarbon receptor antagonists in combination with standard-of-care drugs and investigational agents in solid tumor complex spheroid models. Complex spheroids include a stromal component modeled by human endothelial cells (HUVEC) and fibroblasts modeled by human mesenchymal stem cells (MSCs). The concentration ranges selected for each drug and investigational agent were based upon clinically achievable concentrations if the clinical Cmax of the agent was known.
Compounds. The drugs and investigational agents: BAY 2416964 (NSC825713), GNF351 (NSC835774), CH-223191 (NSC835775), CPI-455 (NSC825282), aza-TdCyd (NSC777586), decitabine (NSC127716), belinostat (NSC758774), entinostat (NSC756642), pevonedistat (NSC761192), tazemetostat (NSC777109), talazoparib (NSC765396), olaparib (NSC753686), selinexor (NSC780203), nedisertib (M3814, NSC802822), bortezomib (NSC756655), venetoclax (NSC766270), doxorubicin (NSC123127), elimusertib (BAY189344, NSC800525), ceralasertib (AZD6738, NSC777638), TAK-243 (NSC785004), alisertib (NSC759677), etoposide (NSC141540), topotecan (NSC609699), eribulin (NSC707389), gemcitabine (NSC613327), carboplatin (NSC241240), cisplatin (NSC119875), and SN-38 (NSC673596) were obtained from the National Cancer Institute (NCI) Developmental Therapeutics Program Chemical Repository (32). The FDA-approved anticancer drug set is available from the Developmental Therapeutics Program at https://dtp.cancer.gov/organization/dscb/obtaining/available plates.htm. […] The stock solutions were prepared in dimethyl sulfoxide (DMSO, Sigma-Aldrich, St. Louis, MO, cat. D2650), except for the platinum compounds which were prepared in saline (Quality Biological, Gaithersburg, MD, cat. 114-055-101), at 800-fold the tested concentration and stored at -70 degrees C prior to their use. All drugs and investigational agents were tested over a range starting from a high concentration at or near the clinical Cmax and decreasing in half-log increments. If the clinical Cmax for an agent had not been determined, the highest concentration tested was 10 microM (Table 1).
Cell Culture. All cells were maintained in an incubator at 37 degrees C and 5% CO2 with 95% humidity. The PDC lines were cultured according to standard operating procedures established by the NCI PDMR (https://pdmr.cancer.gov). Briefly, all PDCs were thawed and cultured in Matrigel-coated flasks prepared with a working solution of 1X Ham's F-12 nutrient mix, without supplementation (Invitrogen, Waltham, MA, cat. 11765054), 100 U/mL penicillin-streptomycin (Invitrogen, cat. 15140122), and 2.5% Matrigel (Corning Inc., Corning, NY, cat. 354248) for the first three passages. All PDCs were cultured in complete DMEM/F-12 media containing advanced DMEM/F-12 (Invitrogen, cat. 12634028), 4.9% defined fetal bovine serum, heat inactivated (HyClone Laboratories Inc., Logan, UT, cat. SH30070.03HI), 389 ng/mL hydrocortisone (Sigma-Aldrich, cat. H4001), 9.7 ng/mL human EGF recombinant protein (Invitrogen, cat. PHG0313), 23.4 microg/mL adenine (Sigma-Aldrich, cat. A2786), 97.3 U/mL penicillin-streptomycin (Invitrogen, cat. 15140122), 1.9 mM L-glutamine (Invitrogen, cat. 25030081), and 9.7 microM Y-27632 dihydrochloride (Tocris Bioscience, Bristol, United Kingdom, cat. 1254). The PDCs were cultured in complete DMEM/F12 media without 10 microM Y-27632 dihydrochloride for at least two passages prior to the screen. The established cell lines NCI-H1341 and […] were cultured in DMEM/F-12, HEPES (Invitrogen, cat. 11330032), 5% defined fetal bovine serum (HyClone Laboratories Inc., cat. SH30070.03), ITS premix universal culture supplement [insulin (5 microg/mL), transferrin (5 microg/mL), and selenious acid (5 ng/mL)] […]
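Further: compound exposure lasted 7 days after spheroids had grown for 3 days.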

COc1ccc([C@@H](O)c2cc(-c3ncnc4cc(N5CCOCC5)ccc34)c(F)cc2Cl)nn1
5.31 and 5.38 and 5.40: pIC50 (curve of compound)
inactive: viability, T/C (compound 0.0316 µM) 94.1% and 90.8% and 102% | viability, T/C (compound 0.1 µM) 93.3% and 98.1% and 115% | viability, T/C (compound 0.316 µM) 93.6% and 91.3% and 90.6% | viability, T/C (compound 1 µM) 79.1% and 78.4% and 71.7% | viability, T/C (compound 3.16 µM) 60.8% and 57.4% and 59.3% | viability, T/C (compound 10 µM) 33.6% and 28.5% and 30.6%

COc1cccc2c1C(=O)c1c(O)c3c(c(O)c1C2=O)CC(O)(C(=O)CO)CC3OC1CC(N)C(O)C(C)O1 (stereo not drawn)
6.50 and 6.75 and 6.35: pIC50 (curve of compound)
active: viability, T/C (compound 10 µM) 8.13% and 7.62% and 11.8%
inactive: viability, T/C (compound 0.0316 µM) 71.1% and 70.4% and 82.5% | viability, T/C (compound 0.1 µM) 64.3% and 56.2% and 87.1% | viability, T/C (compound 0.316 µM) 48.5% and 41.1% and 55.1% | viability, T/C (compound 1 µM) 30.3% and 29.7% and 31.8% | viability, T/C (compound 3.16 µM) 3.77% and 2.01% and 2.55%

Cc1ccccc1N=Nc1ccc(NC(=O)c2ccnn2C)c(C)c1
< 5.00: pIC50 (compound alone, run of 07/26/2022)

Cc1cncc(-c2nc(NCCc3c[nH]c4ccccc34)c3ncn(C(C)C)c3n2)c1
inactive: viability, T/C (compound 0.1 µM) 97.9% [middle of 20 runs]

Cn1ncnc1C1c2n[nH]c(=O)c3cc(F)cc(c23)NC1c1ccc(F)cc1 (stereo not drawn)
< 7.00: pIC50 (curve of compound)
inactive: viability, T/C (compound 0.000316 µM) 103% and 92% and 97.7% | viability, T/C (compound 0.001 µM) 100% and 90.9% and 98.2% | viability, T/C (compound 0.00316 µM) 109% and 95.2% and 113% | viability, T/C (compound 0.01 µM) 101% and 102% and 111% | viability, T/C (compound 0.0316 µM) 102% and 100% and 97.5% | viability, T/C (compound 0.1 µM) 104% and 86.2% and 91%

NS(=O)(=O)OCC1CC(n2ccc3c(NC4CCc5ccccc54)ncnc32)CC1O (stereo not drawn)
5.82 and 6.08 and 6.10: pIC50 (curve of compound)
inactive: viability, T/C (compound 0.0316 µM) 96.1% and 125% and 117% | viability, T/C (compound 0.1 µM) 123% and 111% and 125% | viability, T/C (compound 0.316 µM) 127% and 113% and 129% | viability, T/C (compound 1 µM) 67.1% and 38% and 43.2% | viability, T/C (compound 3.16 µM) 18.2% and 19.7% and 24.9% | viability, T/C (compound 10 µM) 20.3% and 24% and 29.6%

Nc1ccccc1NC(=O)c1ccc(CNC(=O)OCc2cccnc2)cc1
inactive: viability, T/C (compound 0.0316 µM) 91.4% and 87.2% and 106% | viability, T/C (compound 0.1 µM) 96.6% and 89.1% and 109% | viability, T/C (compound 0.316 µM) 96.1% and 93.6% and 116% | viability, T/C (compound 1 µM) 97.1% and 103% and 95% | viability, T/C (compound 3.16 µM) 76.1% and 86% and 93.4% | viability, T/C (compound 10 µM) 39.1% and 38.4% and 42.8%
5.15 and 5.12 and 5.07: pIC50 (curve of compound)

Nc1ccn(C2OC(CO)C(O)C2(F)F)c(=O)n1 (stereo not drawn)
inactive: viability, T/C (compound 0.0316 µM) 74.1% and 75.2% and 60.5% | viability, T/C (compound 0.1 µM) 65.7% and 65.9% and 56.8% | viability, T/C (compound 0.316 µM) 48.5% and 56.9% and 47.4% | viability, T/C (compound 1 µM) 51.8% and 50.9% and 45.2% | viability, T/C (compound 3.16 µM) 42.4% and 53.5% and 42.6% | viability, T/C (compound 10 µM) 39.8% and 48.5% and 36.5%

Nc1ncn(C2CC(O)C(CO)O2)c(=O)n1 (stereo not drawn)
inactive: viability, T/C (compound 0.00316 µM) 93.4% and 101% and 95.4% | viability, T/C (compound 0.01 µM) 104% and 93.1% and 106% | viability, T/C (compound 0.0316 µM) 93.1% and 93% and 94.8% | viability, T/C (compound 0.1 µM) 91% and 96.5% and 87.2% | viability, T/C (compound 0.316 µM) 96.5% and 84.4% and 102% | viability, T/C (compound 1 µM) 92.9% and 87.3% and 89%
< 6.00: pIC50 (curve of compound)

Nc1ncn(C2CC(O)C(CO)S2)c(=O)n1 (stereo not drawn)
< 6.52: pIC50 (curve of compound)
inactive: viability, T/C (compound 0.000949 µM) 98% and 103% and 102% | viability, T/C (compound 0.003 µM) 105% and 110% and 111% | viability, T/C (compound 0.00949 µM) 97% and 102% and 112% | viability, T/C (compound 0.03 µM) 99.5% and 104% and 110% | viability, T/C (compound 0.0949 µM) 110% and 101% and 95.2% | viability, T/C (compound 0.3 µM) 111% and 96.2% and 102%

O=C(C=Cc1cccc(S(=O)(=O)Nc2ccccc2)c1)NO
< 5.00: pIC50 (curve of compound)
inactive: viability, T/C (compound 0.0316 µM) 107% and 91.2% and 102% | viability, T/C (compound 0.1 µM) 114% and 101% and 110% | viability, T/C (compound 0.316 µM) 106% and 114% and 116% | viability, T/C (compound 1 µM) 106% and 116% and 112% | viability, T/C (compound 3.16 µM) 106% and 107% and 116% | viability, T/C (compound 10 µM) 86.2% and 96.8% and 77.4%

O=C(C=Cn1cnc(-c2cc(C(F)(F)F)cc(C(F)(F)F)c2)n1)NNc1cnccn1
inactive: viability, T/C (compound 0.00949 µM) 99.1% and 89.9% and 89% | viability, T/C (compound 0.03 µM) 98.2% and 95.7% and 107% | viability, T/C (compound 0.0949 µM) 92% and 79.8% and 82.9% | viability, T/C (compound 0.3 µM) 73.7% and 77.4% and 74.8% | viability, T/C (compound 0.949 µM) 69.4% and 79.6% and 90% | viability, T/C (compound 3 µM) 77.4% and 72.9% and 69.9%
< 5.52: pIC50 (curve of compound)

O=C(c1cc(Cc2n[nH]c(=O)c3ccccc23)ccc1F)N1CCN(C(=O)C2CC2)CC1
inactive: viability, T/C (compound 0.0316 µM) 98.3% and 101% and 99.8% | viability, T/C (compound 0.1 µM) 104% and 105% and 98.3% | viability, T/C (compound 0.316 µM) 101% and 95% and 92% | viability, T/C (compound 1 µM) 104% and 102% and 95.3% | viability, T/C (compound 3.16 µM) 98.9% and 93% and 89.2% | viability, T/C (compound 10 µM) 103% and 82.8% and 83.2%
< 5.00: pIC50 (curve of compound)
